# Patent US20240261274A1, “TREATMENT OF MYC-DRIVEN CANCERS WITH GSPT1 DEGRADERS” (MONTE ROSA THERAPEUTICS, INC., priority 2021, published 2024)
# Read-outs that look alike come from different tables or passages of the source.
# Columns and labels:
# [1] = tested on: c-Myc HMEC isogenic cell line; assay: c-Myc and CRBN dependency, HMEC isogenic cell line viability (CellTiterGlo); type: cell-based, Human; details: 72 hours
# Experimental: Human mammary epithelial cells (HMEC) were engineered to express either c-Myc tagged with EGFP or EGFP alone (non myc) (analogous but distinct from Kessler J D et al, Science. 2012 Jan. 20; 335(6066):348-53. doi: 10.1126/science.1212728; Hsu T Y et al, Nature. 2015 Sep. 17; 525(7569):384-8. doi: 10.1038/nature14985). The engineered cells were plated in 6 well plates or seeded at 1000 (myc) or 4000 (non myc) cells/well in a 384 ultra-low attachment plate in a total volume of 40 μL HMEC cell culture media (DMEM/F12+10% HI-FBS+15 mM HEPES+0.5 ug/ml Hydrocortisone+10 ug/ml Insulin+20 ng/ml EGF). Cells were cultured in the presence or absence of doxycycline for 25 population doublings and cell lysates generated for western blotting probing for c-Myc, 4EBP1, phosphor-4EBP1 (p4EBP1) as indicated. β-actin used as a loading control. For the wash-off lane, doxycycline was removed 24 hours before cell lysis. Cell viability was assessed in the presence (Myc on) or absence (Myc off, −Dox) of doxycycline and also following doxycycline removal (Myc off, wash-off). Cell viability was performed following treatment with compound 8 for 72 hours as recommended by the provider (Promega, CellTiterGlo). Similarly, CRBN-dependency was assessed in the HMEC proficient and deficient cell lines induced for c-Myc expression with doxycycline and viability performed as above following 72 hours of treatment with compound 8. EC50 values were determined using Prism8 (GraphPad) and the asymmetric (five-parameter) equation and least squares fit.
# GSPT1 = GSPT1 (Homo sapiens, UniProt P15170+Q96SW2); assay: GSPT1 degradation in tumors of mice treated with compound 210; type: in vivo; design: from tissue; host or cells: NCI-H1155 subcutaneous xenograft tumours from BALB/c nude mice; details: 1 mg/kg, 3 mg/kg, 6 mg/kg; compared to vehicle control
# GSPT1, sequence (P15170 whole entry): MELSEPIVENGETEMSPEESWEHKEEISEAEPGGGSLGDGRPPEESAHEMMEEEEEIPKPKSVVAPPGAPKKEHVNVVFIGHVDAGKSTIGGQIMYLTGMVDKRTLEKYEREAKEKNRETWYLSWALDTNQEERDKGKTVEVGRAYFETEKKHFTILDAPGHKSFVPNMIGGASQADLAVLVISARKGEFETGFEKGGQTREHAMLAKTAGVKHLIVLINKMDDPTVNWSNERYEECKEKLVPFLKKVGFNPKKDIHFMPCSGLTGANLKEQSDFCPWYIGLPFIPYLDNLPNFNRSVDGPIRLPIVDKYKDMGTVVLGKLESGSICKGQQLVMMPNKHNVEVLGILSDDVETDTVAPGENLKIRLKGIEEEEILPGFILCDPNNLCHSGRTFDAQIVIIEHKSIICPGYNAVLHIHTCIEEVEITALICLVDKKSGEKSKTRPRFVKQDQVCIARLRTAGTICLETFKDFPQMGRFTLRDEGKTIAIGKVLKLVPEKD
# GSPT1, sequence (Q96SW2 whole entry): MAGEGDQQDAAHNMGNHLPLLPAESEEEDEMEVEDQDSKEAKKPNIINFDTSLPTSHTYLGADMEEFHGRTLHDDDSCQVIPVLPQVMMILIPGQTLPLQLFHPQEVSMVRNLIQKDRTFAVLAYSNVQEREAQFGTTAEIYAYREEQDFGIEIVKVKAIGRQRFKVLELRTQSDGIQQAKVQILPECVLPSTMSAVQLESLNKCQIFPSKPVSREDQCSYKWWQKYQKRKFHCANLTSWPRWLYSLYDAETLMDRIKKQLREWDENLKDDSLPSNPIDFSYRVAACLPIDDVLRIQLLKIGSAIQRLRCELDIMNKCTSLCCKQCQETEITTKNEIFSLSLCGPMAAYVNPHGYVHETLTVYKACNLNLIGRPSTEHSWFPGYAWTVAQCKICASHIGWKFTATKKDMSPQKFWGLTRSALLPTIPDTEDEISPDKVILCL
# GSPT1, sequence (Q16531 whole entry partner): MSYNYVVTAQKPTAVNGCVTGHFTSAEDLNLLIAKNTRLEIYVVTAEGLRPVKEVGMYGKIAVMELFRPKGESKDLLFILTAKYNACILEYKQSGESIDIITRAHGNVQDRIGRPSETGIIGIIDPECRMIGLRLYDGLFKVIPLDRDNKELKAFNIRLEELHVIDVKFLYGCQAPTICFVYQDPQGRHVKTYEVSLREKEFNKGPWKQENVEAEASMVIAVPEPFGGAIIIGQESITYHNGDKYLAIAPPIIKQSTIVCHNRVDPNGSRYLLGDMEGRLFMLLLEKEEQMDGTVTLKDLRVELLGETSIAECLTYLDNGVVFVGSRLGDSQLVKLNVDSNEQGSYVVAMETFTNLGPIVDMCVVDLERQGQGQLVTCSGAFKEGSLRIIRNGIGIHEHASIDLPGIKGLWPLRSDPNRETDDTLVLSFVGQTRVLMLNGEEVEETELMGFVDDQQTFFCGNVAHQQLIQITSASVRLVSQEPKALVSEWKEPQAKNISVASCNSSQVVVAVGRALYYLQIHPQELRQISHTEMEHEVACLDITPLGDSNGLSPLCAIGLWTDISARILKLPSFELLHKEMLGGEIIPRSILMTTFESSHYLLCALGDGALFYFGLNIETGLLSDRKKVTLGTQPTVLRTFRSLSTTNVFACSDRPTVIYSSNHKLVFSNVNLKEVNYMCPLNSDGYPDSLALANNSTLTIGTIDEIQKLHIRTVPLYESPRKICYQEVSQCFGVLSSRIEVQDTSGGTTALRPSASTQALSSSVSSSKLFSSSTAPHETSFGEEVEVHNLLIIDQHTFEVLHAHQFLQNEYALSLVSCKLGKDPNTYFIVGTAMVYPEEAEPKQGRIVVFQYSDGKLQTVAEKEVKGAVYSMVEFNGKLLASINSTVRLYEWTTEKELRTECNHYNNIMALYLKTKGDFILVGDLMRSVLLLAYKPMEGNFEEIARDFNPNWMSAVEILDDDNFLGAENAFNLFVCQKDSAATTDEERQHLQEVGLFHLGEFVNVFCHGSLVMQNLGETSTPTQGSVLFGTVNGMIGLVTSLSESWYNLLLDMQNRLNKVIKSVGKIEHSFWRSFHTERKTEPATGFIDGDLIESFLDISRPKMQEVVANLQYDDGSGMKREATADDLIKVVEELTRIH
# [2] = tested on: WSU-DLCL2 triple hit lymphoma cell line derived xenograft; assay: WSU-DLCL2 triple hit lymphoma CDX efficacy study; type: in vivo, immunodeficient mice; details: oral daily 3 mg/kg and 10 mg/kg
# Experimental: Additionally, cell line derived xenograft (CDX) models were produced for the triple hit lymphoma cell line (WSU-DLCL2) in immunodeficient mice. Oral dosing of Compound 345 was performed daily at doses of 3 mg/kg and 10 mg/kg as well as the CHOP combination (a well-known lymphoma treatment regimen) and a no-drug vehicle control. Tumor volumes were measured (mm^3) at regular intervals over the course of up to 30 days depending on the animal.
# In vivo efficacy study: NCI-H1155, MM1 S, WSU-DLCL2, DOHH-2 cells were maintained in vitro in individual medium and conditions as recommended by the providers and incubated at 37° C. in an atmosphere of 5% CO2 in air. 0.5 million (NCI-H1155), 10 million (MM1S) or 5 million (WSU-DLCL2 and DOHH-2) cells were resuspended in typically 0.1-0.2 mL of PBS with Matrigel (50:50) and were inoculated into 6-8 weeks old BALB/c nude female (NCI-H115, WSU-DLCL2), NOD/SCID (MM1S) or CB-17SCID (DOHH-2) mice and allowed to grow to 150-200 mm3 in size. […] Tumor volumes were measured at least twice weekly during the treatment period using a caliper and the volume was expressed in mm3 using the formula: V=0.5 a×b2 where a and b were the long and short diameters of the tumor, respectively. […] Data are expressed as the mean±SEM. All data was analyzed using GraphPad Prism 8.1.2 (GraphPad).
compound,measurement,setting,value
Cc1ccc(NC(=O)NCc2ccc3c(c2)C(=O)N(C2CCC(=O)NC2=O)C3)cc1Cl (stereo not drawn) [Compound 8],cell death in cells for which cereblon was knocked out,[1]; CRBN deficient HMEC induced for c-Myc,did not induce death
same,EC50,"[1]; Homo sapiens, HMEC, absence of doxycycline-driven c-Myc expression, read-out: cell death, highest concentration tested",> 30 µM
same,EC50,"[1]; Homo sapiens, HMEC, presence of high c-Myc expression (doxycycline), read-out: EC50 of induced cell death",0.64 µM
same,EC50,"[1]; after doxycycline was washed out to remove c-Myc expression, read-out: cell death, highest concentration tested",> 30 µM
Cc1ccc(NC(=O)OCc2ccc3c(c2)C(=O)N(C2CCC(=O)NC2=O)C3)cc1Cl (stereo not drawn) [Compound 210],GSPT1 degradation in tumors,GSPT1,complete degradation of GSPT1
"O=C1CCC(N2Cc3ccc(COC(=O)Nc4cc(OC(F)(F)F)ccc4F)cc3C2=O)C(=O)N1 (stereo not drawn) [Compound 345, (2-(2,6-dioxopiperidin-3-yl)-3-oxoisoindolin-5-yl)methyl(2-fluoro-5-(trifluoromethoxy)phenyl)carbamate]",tumor volume,[2],anti-tumor activity
